In ChEMBL document CHEMBL1201862, “PubChem BioAssay data set” (2004):
Calls of active or inactive are those of the source.

Experiments:
H4 = experiment: Luminescence Cell-Based Dose Response HTS to Identify Activators of 5'UTR Stem-Loop Driven Prion Protein mRNA Translation in H4 Neuroglioblastoma Cells. [Related pubchem assays: 1829 (Project Summary), 1814 (Primary HTS)]; assay type: functional; conditions: Homo sapiens
HeLa = experiment: HeLa cell cytotoxicity, dose response, cytotoxicity control for MITF activator project, CellTiter-Glo luminescence, cherry-pick samples (AID 540259); assay type: functional, cell-based; conditions: Homo sapiens
[1] = Luminescence Cell-Based Dose Confirmation HTS to Identify Activators of 5'UTR Stem-Loop Driven Alpha-Synuclein mRNA Translation in H4 Neuroglioblastoma Cells. [Related pubchem assays: 1829 (Project Summary), 1814 (Primary HTS)]; assay type: functional
[2] = Luminescence Cell-Based Dose Response HTS to Identify Activators of Luciferase Translation or Activity in H4 […] Cells. [Related pubchem assays: 1829 (Project Summary), 1814 (Primary HTS)]; assay type: functional
[3] = molecular target: 26S proteasome non-ATPase regulatory subunit 14 (Homo sapiens, UniProt O00487); experiment: inhibition of proteasome subunit RPN11 – biochemical, fluorescence polarization, uHTS hits, confirmation (AID 602368); assay type: functional
Chain of 26S proteasome non-ATPase regulatory subunit 14 (O00487 whole entry): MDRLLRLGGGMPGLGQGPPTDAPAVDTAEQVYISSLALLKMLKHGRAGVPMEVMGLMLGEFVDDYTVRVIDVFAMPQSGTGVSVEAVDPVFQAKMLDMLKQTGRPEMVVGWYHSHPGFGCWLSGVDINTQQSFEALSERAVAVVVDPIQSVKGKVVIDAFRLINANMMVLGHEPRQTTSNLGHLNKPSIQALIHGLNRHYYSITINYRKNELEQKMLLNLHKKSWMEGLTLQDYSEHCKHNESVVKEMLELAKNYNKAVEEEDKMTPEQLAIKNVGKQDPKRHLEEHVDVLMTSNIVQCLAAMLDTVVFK

[4] = molecular target: 72 kDa type IV collagenase (Homo sapiens, UniProt P08253); experiment: Dose Response validation of uHTS RPN11 inhibitor hits using a MMP-2 Fluorescence assay.; assay type: functional
Chain of 72 kDa type IV collagenase (P08253 whole entry): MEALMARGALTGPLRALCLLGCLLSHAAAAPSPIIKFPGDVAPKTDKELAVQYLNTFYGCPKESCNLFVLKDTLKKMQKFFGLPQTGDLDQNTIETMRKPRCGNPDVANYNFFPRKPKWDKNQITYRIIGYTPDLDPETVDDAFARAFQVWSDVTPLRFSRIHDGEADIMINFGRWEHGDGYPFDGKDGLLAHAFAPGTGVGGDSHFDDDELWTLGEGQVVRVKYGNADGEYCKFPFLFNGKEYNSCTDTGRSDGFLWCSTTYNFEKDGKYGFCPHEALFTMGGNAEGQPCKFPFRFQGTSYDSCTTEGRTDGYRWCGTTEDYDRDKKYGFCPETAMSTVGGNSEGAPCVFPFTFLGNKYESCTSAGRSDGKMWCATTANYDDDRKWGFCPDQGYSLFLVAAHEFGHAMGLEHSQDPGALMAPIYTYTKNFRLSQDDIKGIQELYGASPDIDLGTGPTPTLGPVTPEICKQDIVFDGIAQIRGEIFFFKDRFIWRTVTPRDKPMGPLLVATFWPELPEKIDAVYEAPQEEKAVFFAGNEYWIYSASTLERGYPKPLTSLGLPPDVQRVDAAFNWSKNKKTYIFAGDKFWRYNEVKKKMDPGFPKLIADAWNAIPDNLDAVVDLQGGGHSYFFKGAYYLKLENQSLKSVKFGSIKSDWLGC

Prothrombin = Prothrombin (Bos taurus, UniProt P00735); experiment: thrombin inhibition, dose response, biochemical, fluorescence polarization, uHTS hits (AID 602369); assay type: functional
[5] = CRF-BP/CRF-R2 complex antagonists, dose response, cell-based, uHTS hits, 384-well (AID 651639); assay type: functional, Homo sapiens; conditions: read-out: IC50_Mean
INS1 = experiment: beta cell apoptosis inhibitors, cytokine rescue, dose response, luminescence, retest (AID 449756); assay type: functional, cell-based; conditions: Rattus norvegicus;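 also: cell death triggered by IL-1 beta plus TNF-alpha plus IFN-gamma mixture; protective hits raise ATP signal compared with cytokine alone wells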
[6] = molecular target: T1, Corticotropin-releasing factor receptor 2/Corticotropin-releasing factor-binding protein (Homo sapiens, UniProt P24387+Q13324); experiment: activators of CRF receptor 2 with binding protein – uHTS hits, confirmation (AID 602473); assay type: functional; conditions: read-out: EC50_Mean
T1 sequence (Q13324 whole entry): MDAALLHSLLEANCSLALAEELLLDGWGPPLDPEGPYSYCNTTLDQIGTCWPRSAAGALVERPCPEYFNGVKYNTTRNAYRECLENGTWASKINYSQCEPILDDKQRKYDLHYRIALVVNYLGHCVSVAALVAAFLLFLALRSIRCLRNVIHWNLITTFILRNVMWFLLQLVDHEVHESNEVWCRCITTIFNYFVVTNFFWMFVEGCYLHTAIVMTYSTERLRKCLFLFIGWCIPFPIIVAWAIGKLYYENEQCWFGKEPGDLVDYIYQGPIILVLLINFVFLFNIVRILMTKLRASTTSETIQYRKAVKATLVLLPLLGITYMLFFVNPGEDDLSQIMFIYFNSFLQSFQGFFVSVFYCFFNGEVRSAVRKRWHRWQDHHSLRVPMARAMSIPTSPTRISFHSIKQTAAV
T1 sequence (P24387 whole entry): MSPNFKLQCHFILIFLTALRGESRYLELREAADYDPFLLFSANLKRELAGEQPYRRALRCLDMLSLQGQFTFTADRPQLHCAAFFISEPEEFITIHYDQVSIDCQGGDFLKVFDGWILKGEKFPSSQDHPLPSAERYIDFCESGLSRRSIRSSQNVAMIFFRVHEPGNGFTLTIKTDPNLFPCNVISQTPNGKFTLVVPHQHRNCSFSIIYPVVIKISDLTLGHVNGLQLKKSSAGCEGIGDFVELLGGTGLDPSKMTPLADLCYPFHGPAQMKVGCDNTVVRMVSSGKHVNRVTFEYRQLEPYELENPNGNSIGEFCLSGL

[7] = molecular target: T1, Corticotropin-releasing factor receptor 2/Corticotropin-releasing factor-binding protein; experiment: Dose Response confirmation of uHTS hits for small molecule antagonists of the CRF-binding protein and CRF-R2 receptor complex.; assay type: functional; conditions: read-out: IC50_Mean
[8] = molecular target: T2, Carboxy-terminal domain RNA polymerase II polypeptide A small phosphatase 1 (Homo sapiens, UniProt Q9GZU7); experiment: inhibitors of CTDSP1, concentration-response testing, biochemical assay, absorbance-based, actives from ultra-high-throughput screening (AID 540297); assay type: functional
T2 sequence (Q9GZU7 whole entry): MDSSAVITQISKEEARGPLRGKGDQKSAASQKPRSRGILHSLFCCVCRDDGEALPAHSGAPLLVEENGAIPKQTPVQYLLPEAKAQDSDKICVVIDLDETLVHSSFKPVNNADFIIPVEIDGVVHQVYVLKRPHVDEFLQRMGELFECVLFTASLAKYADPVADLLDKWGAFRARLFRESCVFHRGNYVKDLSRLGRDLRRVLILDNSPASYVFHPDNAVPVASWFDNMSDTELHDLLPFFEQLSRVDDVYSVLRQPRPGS

CHO = experiment: cytotoxicity in TLR9-MyD88 CHO cells, dose response, cytotoxicity control for TLR9-MyD88 binding inhibitor project, cell-based, luminescence (AID 588339); assay type: functional, hamster; conditions: Cricetulus griseus;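 also: CHO cells stably coexpressing TLR9 and MyD88 fusions from primary screen; compound exposure lasted 48 hours before viability readout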
Beta Lactamase = Beta Lactamase (Pseudomonas aeruginosa, UniProt Q932Y6); experiment: beta-lactamase reporter inhibitor potency, dose response, artefact control for TLR9-MyD88 binding inhibitor project, BLA reporter cells, FRET fluorescence (AID 588341); assay type: cell-based;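 also: cell based assay in CHO-K1 cells stably expressing beta-lactamase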
Chain of Beta Lactamase (Q932Y6 whole entry): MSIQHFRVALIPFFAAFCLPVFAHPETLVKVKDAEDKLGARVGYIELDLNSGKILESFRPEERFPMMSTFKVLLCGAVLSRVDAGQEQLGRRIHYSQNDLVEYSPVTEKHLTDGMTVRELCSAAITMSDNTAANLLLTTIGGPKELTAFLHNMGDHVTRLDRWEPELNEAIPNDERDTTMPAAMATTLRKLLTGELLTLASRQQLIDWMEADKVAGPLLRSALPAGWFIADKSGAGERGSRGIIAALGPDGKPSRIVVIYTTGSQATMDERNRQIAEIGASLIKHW

Mu-type opioid receptor = Mu-type opioid receptor (Homo sapiens, UniProt P35372); experiment: (§1) Counterscreen for agonists of heterodimerization of the mu 1 (OPRM1) and delta 1 (OPRD1) opioid receptors: Luminescence-based cell-based high throughput dose response assay to identify agonists of OPRM1 homodimerization.; assay type: functional
Chain of Mu-type opioid receptor (P35372 whole entry): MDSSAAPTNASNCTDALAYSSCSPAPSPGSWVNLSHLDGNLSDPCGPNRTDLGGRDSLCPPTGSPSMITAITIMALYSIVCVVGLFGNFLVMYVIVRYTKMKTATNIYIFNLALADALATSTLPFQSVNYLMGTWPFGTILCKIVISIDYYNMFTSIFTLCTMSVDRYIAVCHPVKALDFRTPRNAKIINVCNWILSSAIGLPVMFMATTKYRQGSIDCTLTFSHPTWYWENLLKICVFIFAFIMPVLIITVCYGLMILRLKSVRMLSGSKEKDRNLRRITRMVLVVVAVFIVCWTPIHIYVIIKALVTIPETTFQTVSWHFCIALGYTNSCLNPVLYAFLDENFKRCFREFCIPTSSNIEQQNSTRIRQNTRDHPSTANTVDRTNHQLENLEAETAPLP

[9] = molecular target: 5-hydroxytryptamine receptor 5A (Homo sapiens, UniProt P47898); experiment: Counterscreen for agonists of OPRM1-OPRD1 heterodimerization: luminescence-based cell-based high throughput dose response assay to identify agonists of 5-hydroxytryptamine (serotonin) 5A receptor (HTR5A). [Related pubchem assays (depositor defined):AID504326, AID504355, AID504692, AID504904, AID504905]; assay type: functional
Chain of 5-hydroxytryptamine receptor 5A (P47898 whole entry): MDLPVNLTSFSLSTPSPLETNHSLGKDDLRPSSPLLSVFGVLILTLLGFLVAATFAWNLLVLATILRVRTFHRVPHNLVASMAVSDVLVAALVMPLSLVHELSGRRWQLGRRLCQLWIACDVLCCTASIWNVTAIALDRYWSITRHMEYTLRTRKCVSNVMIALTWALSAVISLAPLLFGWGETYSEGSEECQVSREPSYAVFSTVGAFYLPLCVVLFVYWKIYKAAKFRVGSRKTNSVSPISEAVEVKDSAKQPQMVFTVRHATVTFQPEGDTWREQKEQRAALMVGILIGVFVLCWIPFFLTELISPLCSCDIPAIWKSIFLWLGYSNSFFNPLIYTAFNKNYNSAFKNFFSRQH

[10] = molecular target: Delta-type opioid receptor (Homo sapiens, UniProt P41143); experiment: as §1, with “of OPRD1” for “of OPRM1”, “homodimerization. [Related pubchem assays (depositor defined):AID504326, AID504355, AID504692, AID504904, AID504905]” for “homodimerization.”; assay type: functional
Chain of Delta-type opioid receptor (P41143 whole entry): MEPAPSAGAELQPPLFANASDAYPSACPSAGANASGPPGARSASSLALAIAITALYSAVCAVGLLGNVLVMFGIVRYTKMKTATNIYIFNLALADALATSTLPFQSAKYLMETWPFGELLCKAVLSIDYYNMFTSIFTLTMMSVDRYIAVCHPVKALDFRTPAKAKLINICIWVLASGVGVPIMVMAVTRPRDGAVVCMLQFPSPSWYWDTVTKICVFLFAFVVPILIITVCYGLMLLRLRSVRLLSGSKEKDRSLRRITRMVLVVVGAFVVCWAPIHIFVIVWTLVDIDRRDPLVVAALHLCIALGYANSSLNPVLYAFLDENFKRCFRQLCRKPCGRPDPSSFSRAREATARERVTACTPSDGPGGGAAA

Escherichia coli [11] = experiment: microbe, parasite or virus in culture
Escherichia coli [12] = experiment: microbe, parasite or virus in culture; remark: listed apart in the source
[13] = molecular target: T3, Latent membrane protein 1 (Human herpesvirus 4 (strain B95-8), UniProt P03230); experiment: TES1-eGFP NF-kB reporter inhibition versus Tet-On dsRED, dose response, selectivity assay for LMP1 NF-kB inhibitor project, imaging, HEK293T, dual-color eGFP/dsRED, cherry-picks (AID 588398); assay type: functional, cell-based
T3 sequence (P03230 whole entry): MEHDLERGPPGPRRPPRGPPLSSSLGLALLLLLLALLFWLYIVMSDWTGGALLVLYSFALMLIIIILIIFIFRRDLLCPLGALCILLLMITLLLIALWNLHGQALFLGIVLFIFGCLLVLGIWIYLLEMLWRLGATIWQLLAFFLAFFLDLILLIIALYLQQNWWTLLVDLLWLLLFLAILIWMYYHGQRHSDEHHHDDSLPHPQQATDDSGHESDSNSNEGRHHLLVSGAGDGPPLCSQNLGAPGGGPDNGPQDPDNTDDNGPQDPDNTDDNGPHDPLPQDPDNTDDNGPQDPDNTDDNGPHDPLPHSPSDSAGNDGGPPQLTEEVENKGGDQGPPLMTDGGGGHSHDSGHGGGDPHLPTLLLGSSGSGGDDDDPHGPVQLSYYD

Q: Which results are given for `Cc1ccc(-n2nnc(-c3ccnc4ccccc34)n2)cc1`?
A: EC50 (H4): 14.5 µM (active); AC50 (HeLa): 45.4 µM (active); EC50 [1]: 0.371 µM (active); EC50 [2]: 0.745 µM (active)

Q: With `c1ccc(-c2ccc3sccc3n2)cc1` as the compound, how does the AC50 (HeLa) read?
A: Its AC50 is 79 µM (active).

Q: For `CC(=O)N1CCc2cc(NN=C3C(=O)CCCC3=O)ccc21`, which IC50 [3] is on record?
A: Its IC50 is 30.2 µM (active).

Q: And the IC50 [4]?
A: Its IC50 is > 100 µM (inactive).

Q: And the IC50 (Prothrombin)?
A: The IC50 was 43.2 µM (active).

Q: For `Fc1ccccc1CN=C(S)Nc1ccc(Cl)cc1`, which IC50 [5] is on record?
A: The IC50 was 14.8 µM (active).

Q: Which IC50 [5] does the source give for `CC(C)Cn1c(SCC(=O)N2CCc3ccccc3C2)nc2cc(Cl)ccc2c1=O` here?
A: The IC50 was 6.45 µM (active).

Q: What about the AC50 (INS1) of the same compound?
A: Its AC50 is 7.24 µM (active).

Q: What about the EC50 [6] of the same compound?
A: The EC50 was > 53 µM (inactive).

Q: And the IC50 [7]?
A: The IC50 was 6.92 µM (active).

Q: With `COc1ccccc1-n1cnc2c(c1=O)c1nc3ccccc3nc1n2-c1ccc(C)cc1` as the compound, how does the IC50 [8] read?
A: Its IC50 is 8.78 µM (active).

Q: Which IC50 (CHO) does the source give for `CC(C)CNC(=O)COC(=O)c1c2c(nc3ccccc13)/C(=C/c1cccs1)CC2` here?
A: The IC50 was > 49.7 µM (inactive).

Q: And the AC50 (INS1)?
A: The AC50 was 43.8 µM (active).

Q: And the IC50 (Beta Lactamase)?
A: Its IC50 is 3.52 µM (active).

Q: Which EC50 (Mu-type opioid receptor) does the source give for `Cc1cc(Cl)ccc1OCC(=O)N[C@@H](Cc1ccccc1)c1nc2ccccc2[nH]1` here?
A: Its EC50 is > 92.5 µM (inactive).

Q: And the EC50 [9]?
A: The EC50 was > 92.5 µM (inactive).

Q: What about the IC50 [8] of the same compound?
A: The IC50 was 21.5 µM (active).

Q: What about the EC50 [10] of the same compound?
A: Its EC50 is > 92.5 µM (inactive).

Q: Which AC50 (Escherichia coli [11]) does the source give for `C[C@H](NC(=O)c1[nH]cnc1C(=O)NCC(=O)OC(C)(C)C)c1ccccc1` here?
A: The AC50 was 52.9 µM (active).

Q: What about the AC50 (Escherichia coli [12]) of the same compound?
A: The AC50 was 46.2 µM (active).

Q: Which AC50 [13] does the source give for `Cc1cc(C)c(S(=O)(=O)N2CCN(C(=O)c3ccccc3OCc3c(C)noc3C)CC2)c(C)c1` here?
A: The AC50 was 91.5 µM (active).
